# Assay: Human HepG2 cell viability assay in 384 well format
# Assay type: toxicity, cell-based
# Set-up: dose 125 nL, time 70.5 hour; concentration not given beside the values
# Settings: HepG2 cells, read-out: Inhibition
row,Compound,cytotoxicity at 70.5 h [%]
1,COCCN1C[C@@H]2CCCO[C@@H]2[C@H](N(C)Cc2ccco2)C1,-2.22
2,O=C1CCC(C(=O)Nc2cnn(-c3ccccc3Cl)c2)N1 (configuration not stated),-9.74
3,Cc1nc(N2CCN(C(=O)c3ccccc3)CC2)c2c(n1)c(C)nn2C,-2.09
4,Cc1nccn1CC1CCCN(S(=O)(=O)c2cnn(C)c2)C1 (configuration not stated),-2.81
5,O=C([C@@H]1C[C@@H]2CCN(Cc3ccccn3)C[C@H]2O1)N1CCCO1,2.74
6,CCCc1nc(N(C)Cc2ccco2)c2c(n1)c(C)nn2CC,-3.19
7,Cc1n[nH]c(C)c1NC(=O)CCc1cccc(C2CCCN(C)C2)n1 (configuration not stated),-3.99
8,COc1cc(-c2nc3c([nH]2)CCCNC3=O)ccc1O,5.51
9,O=S(=O)(c1ccccc1)N1CCOC(Cn2ccnc2)C1 (configuration not stated),-6.05
10,O=c1nc(SCc2cccnc2)c2c(n1CCO)CCC2,-7.99
11,O=C(CN1CCC(c2ccccc2)C1)NC(=O)NCC(F)(F)F (configuration not stated),21.4
12,CC(=O)c1c(F)cccc1N1CCC(Cc2cccnc2)CC1,9.22
13,COc1cccc(Nc2nc(C3CCCNC3)c3sc(C)c(C)n23)c1 (configuration not stated),-12
14,O=C(Cn1ccc2sccc2c1=O)NC1CCCCC1,-9.58
15,O=C(NC[C@H]1CC[C@H](c2ccnc3ncnn32)CC1)C1CC1,22.4
16,O=C1CN(CCCNC(=O)Nc2cccc(Cl)c2F)CCN1,-2.99
17,CN(C)C[C@@H]1CN(C(=O)Cc2cccc(O)c2)C[C@@H]1CO,-7.03
18,CCS(=O)(=O)NCCCn1ncc2c(C)cccc21,-1.77
19,CN(C)c1ccc(C(=O)N2CCCN(Cc3cscn3)CC2)nn1,27.8

row,Compound,cytotoxicity at 70.5 h [%]
1,CCC(C)(C)C(=O)NCCCOC1CCOC1 (configuration not stated),2.9
2,CCc1nc(N2CCCC(CCCOC)(C(=O)O)C2)ncc1C (configuration not stated),-10.1
3,O=C(c1cnc2[nH]c(=O)[nH]c(=O)c2c1)N1CCCC1C1CCCC1 (configuration not stated),-11.9
4,CN(CCCNC(=O)N1CCCC1c1ccsc1)c1ccccn1 (configuration not stated),16.8
5,CN(Cc1n[nH]c2c1CCC2)C(=O)c1cccc(CCC(C)(C)O)c1,1.92
6,COC(=O)c1cc(OC)c(OC)cc1N(C)S(C)(=O)=O,41.7
7,CNC(=O)N1C[C@H]2N(c3ncccn3)CCC[C@@]2(C(=O)NCC2CC2)C1,0.471
8,O=C(NCCOc1ccc2c(c1)OCO2)C1CC(=O)N(C2CC2)C1 (configuration not stated),3.82
9,CN(C)CCN1C2(CCN(Cc3nccs3)C2)c2ccccc2S1(=O)=O (configuration not stated),24.4
10,Cc1cccc(OCc2ccc(C(=O)N3N=CCC3(O)C(F)(F)F)o2)c1 (configuration not stated),9.08
11,COCCCNC(=O)Nc1cccc2ncccc12,30.8
12,Cc1nnc(NC(=O)NCCCN2CCC(C(N)=O)CC2)s1,-8.8
13,CNC(=O)c1cccc(CCNS(C)(=O)=O)c1,-2.35
14,CN(Cc1ccccc1)C(=O)CCN1C[C@H](C2CC2)[C@@H](N(C)C)C1,-10.8
15,CNS(=O)(=O)CC(=O)N(C1CC1)C1Cc2ccccc2C1,-13.4
16,CN1CCC(n2nc(Cc3cccc(Cl)c3)nc2Cn2ccnc2)CC1,-8.49
17,CS(=O)(=O)N1CC2(CCN(c3nccs3)CC2)c2ccccc21,5.59
18,Cn1ccnc1SCCNc1ccnc(C(F)(F)F)n1,-2.76
19,NC(=O)Cn1cc(NC(=O)N2CCCC2)cn1,-29.6

row,Compound,cytotoxicity at 70.5 h [%]
1,Cc1cnn(CC2CN(Cc3nc4ccccc4nc3C)CCO2)c1 (configuration not stated),-0.573
2,Cn1nccc1-c1ccc2nc(C3CCN(CCO)CC3)nn2c1,-2.61
3,COc1ccccc1OCc1cc(C(=O)N2CC=CC2C(C)C)n[nH]1 (configuration not stated),-6.89
4,O=C1NCCCC12CCN(c1nc3c(c(C(F)(F)F)n1)CCCC3)C2 (configuration not stated),-6
5,Cc1cc(Nc2ccc3c(c2)CC(=O)N3)nc(C(C)C)n1,-6.82
6,Cc1nsc(C(=O)NCCc2ccc(S(N)(=O)=O)cc2)n1,-5.58
7,c1ccc2c(c1)CC(Cc1cc(N3CCCC3)cnn1)CO2 (configuration not stated),-7.55
8,CN(CC1CC1)C(=O)c1cc2c(c(S(N)(=O)=O)c1)CCC2,2.25
9,Cc1cc(CN2CCc3nc(N4CCOCC4)nc(O)c3CC2)c(C)s1,-0.651
10,Cc1cc(NC(=O)CN2CCc3cncnc3C2)no1,25.7
11,CC(C)N1CCCCC1c1cncc(Cl)n1 (configuration not stated),17.6
12,NC(=O)c1c[nH]nc1NC(=O)c1cccc(Cl)c1,-3.76
13,CC(=O)c1cn(CC(=O)N2CCCC(O)(CO)C2)c2ccccc12 (configuration not stated),28
14,Cn1cc(CN2CC[C@@H]3[C@@H]2CCN3C(=O)Cc2cccc(F)c2)cn1,-4.59
15,CCOc1cc2c(cc1CCC(=O)O)CCC2,7.85
16,CCc1nc(N2CCC3(CC2)CC(=O)N(Cc2ccc(Cl)cc2)C3)no1,-10.7
17,Cn1cccc1C(=O)N1CCN(Cc2ccncc2)c2ncccc2C1,-7.79
18,CCN(CC)C(=O)CS(=O)(=O)c1cc(OC)c(OC)cc1C,-9.5
19,Cc1cc2c(=O)n3c(nc2s1)CCN(Cc1cnc(C(C)C)nc1)CC3,-14.8

# — ChEMBL document CHEMBL3507680, “University of Dundee, Gates Library screen for HepG2 cell viability”
